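Protocol summary: plate cells (96-well), add compound at 5 concentrations, incubate 48 h, interpolate endpoints linearly. Abbreviation: GI50, concentration required for 50% inhibition of growth.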 Calls of active or inactive are those of the source. Cut-off read from the data, not from the text of the source: active = GI50 up to about 1.1 µM and inactive = higher.
Tests used:
Assay in all cases: inhibition of tumour cell growth, NCI panel, 48 h
Hs-578T = tested on: Hs-578T
NCI/ADR-RES = tested on: NCI/ADR-RES
DU-145 = tested on: DU-145
A498 = tested on: A498
U-251 = tested on: U-251
SF-295 = tested on: SF-295
SNB-75 = tested on: SNB-75
A549 = tested on: A549
MDA-MB-435 = tested on: MDA-MB-435
SK-MEL-28 = tested on: SK-MEL-28
SF-268 = tested on: SF-268
HCT-15 = tested on: HCT-15
HL-60 = tested on: HL-60
MDA-MB-231 = tested on: MDA-MB-231
CCRF-CEM = tested on: CCRF-CEM
MOLT-4 = tested on: MOLT-4
NCI-H226 = tested on: NCI-H226
UACC-62 = tested on: UACC-62
OVCAR-3 = tested on: OVCAR-3
SR = tested on: SR

Compound | GI50 (Hs-578T) | GI50 (NCI/ADR-RES) | GI50 (DU-145) | GI50 (A498) | GI50 (U-251) | GI50 (SF-295) | GI50 (SNB-75) | GI50 (A549) | GI50 (MDA-MB-435) | GI50 (SK-MEL-28) | GI50 (SF-268) | GI50 (HCT-15) [µM] | GI50 (HL-60) | GI50 (MDA-MB-231) | GI50 (CCRF-CEM) | GI50 (MOLT-4) | GI50 (NCI-H226) | GI50 (UACC-62) | GI50 (OVCAR-3) | GI50 (SR)
COC(=O)N1CC2(CO)C3CC=C(C(=O)Nc4ccccc4Br)C2C1C3Br (stereo not drawn) | > 50 µM (inactive) | > 50 µM (inactive) | > 50 µM (inactive) | > 50 µM (inactive) | > 50 µM (inactive) | > 50 µM (inactive) | > 50 µM (inactive) | > 50 µM (inactive) | > 50 µM (inactive) | > 50 µM (inactive) | > 50 µM (inactive) | > 50 | > 50 µM (inactive) | > 50 µM (inactive) | > 50 µM (inactive) | > 50 µM (inactive) | > 50 µM (inactive) | > 50 µM (inactive) | > 50 µM (inactive) | > 50 µM (inactive)
O=C1NCC2(CCN(CC3COc4ccccc4O3)CC2)N1c1ccccc1 (stereo not drawn) | > 100 µM (inactive) | > 100 µM (inactive) | > 100 µM (inactive) | > 100 µM (inactive) | > 100 µM (inactive) | > 100 µM (inactive) | > 100 µM (inactive) | > 100 µM (inactive) | > 100 µM (inactive) | 89.5 µM (inactive) | > 100 µM (inactive) | > 100 | 60.3 µM (inactive) | > 100 µM (inactive) | > 100 µM (inactive) | 71.1 µM (inactive) | > 100 µM (inactive) | > 100 µM (inactive) | > 100 µM (inactive) | > 100 µM (inactive)
COCn1c2ccc(OC(C)=O)cc2c2c(=O)oc(N(C)C)nc21 | > 100 µM (inactive) | > 100 µM (inactive) | > 100 µM (inactive) | > 100 µM (inactive) | > 100 µM (inactive) | > 100 µM (inactive) | > 100 µM (inactive) | > 100 µM (inactive) | > 100 µM (inactive) | > 100 µM (inactive) | – | > 100 | > 100 µM (inactive) | > 100 µM (inactive) | > 100 µM (inactive) | > 100 µM (inactive) | > 100 µM (inactive) | > 100 µM (inactive) | – | > 100 µM (inactive)
CCCCCCCCCCCCCCCCCCNC(=S)NC=C1C(=O)c2ccccc2C1=O | 16.3 µM (inactive) | 14.2 µM (inactive) | 6.12 µM (inactive) | 19.2 µM (inactive) | 4.73 µM (inactive) | 13.6 µM (inactive) | – | 13.2 µM (inactive) | 15.9 µM (inactive) | 16.9 µM (inactive) | 5.62 µM (inactive) | 10.2 | 3.87 µM (inactive) | 10.9 µM (inactive) | 5.02 µM (inactive) | 4.03 µM (inactive) | 8.32 µM (inactive) | – | 13.8 µM (inactive) | 2.75 µM (inactive)
CCCc1nnc2sc(COc3ccc(OCc4nn5c(CCC)nnc5s4)c(Cl)c3)nn12 | 47 µM (inactive) | 30.5 µM (inactive) | 24.8 µM (inactive) | 23.6 µM (inactive) | 38.2 µM (inactive) | 20.8 µM (inactive) | 22.2 µM (inactive) | 27.5 µM (inactive) | 20.5 µM (inactive) | 26.1 µM (inactive) | 23 µM (inactive) | 24.9 | 14.8 µM (inactive) | 36.1 µM (inactive) | – | 24.9 µM (inactive) | > 100 µM (inactive) | 13.7 µM (inactive) | 26 µM (inactive) | 17.8 µM (inactive)
CCOC(=O)C(Cc1c2ccccc2cc2ccccc12)(NC(C)=O)C(=O)OCC | 46.8 µM (inactive) | > 50.2 µM (inactive) | > 92.5 µM (inactive) | 55.5 µM (inactive) | > 80.5 µM (inactive) | > 65.9 µM (inactive) | > 19.8 µM (inactive) | > 72.8 µM (inactive) | > 72.4 µM (inactive) | > 100 µM (inactive) | 36.9 µM (inactive) | > 49.3 | 34.4 µM (inactive) | > 23.1 µM (inactive) | 56.4 µM (inactive) | 25.8 µM (inactive) | 62.1 µM (inactive) | – | > 64.7 µM (inactive) | 70.5 µM (inactive)
C1=N\CCN2CCN(CC/N=C\c3ccc(cc3)OCc3cccc(n3)COc3ccc/1cc3)CC2 | 32.7 µM (inactive) | > 50 µM (inactive) | > 50 µM (inactive) | > 50 µM (inactive) | > 50 µM (inactive) | 46.2 µM (inactive) | > 50 µM (inactive) | > 50 µM (inactive) | > 50 µM (inactive) | > 50 µM (inactive) | > 50 µM (inactive) | > 50 | > 50 µM (inactive) | > 50 µM (inactive) | > 50 µM (inactive) | > 50 µM (inactive) | > 50 µM (inactive) | > 50 µM (inactive) | 28.8 µM (inactive) | > 50 µM (inactive)
C[C@@H]1C[C@H](O)[C@]2(O)O[C@@H]3C[C@@]4(C=O)[C@@H](CC=C5[C@@H]4CC[C@]4(C)[C@@H](C6=CC(=O)OC6)CC[C@]54O)C[C@H]3O[C@@H]2O1 | < 0.01 µM (active) | < 0.0202 µM (active) | < 0.0163 µM (active) | < 0.01 µM (active) | < 0.0214 µM (active) | < 0.0191 µM (active) | 0.112 µM (active) | < 0.0109 µM (active) | 0.0332 µM (active) | 0.128 µM (active) | 0.0103 µM (active) | 0.0175 | 0.0171 µM (active) | 0.144 µM (active) | < 0.01 µM (active) | < 0.01 µM (active) | < 0.0191 µM (active) | 0.0449 µM (active) | 0.0131 µM (active) | < 0.015 µM (active)
NC(Cc1n[nH]c2ccccc12)C(=O)O (stereo not drawn) | > 100 µM (inactive) | > 100 µM (inactive) | > 100 µM (inactive) | > 100 µM (inactive) | > 100 µM (inactive) | > 100 µM (inactive) | > 100 µM (inactive) | > 100 µM (inactive) | > 100 µM (inactive) | > 100 µM (inactive) | > 100 µM (inactive) | > 100 | > 100 µM (inactive) | > 100 µM (inactive) | > 100 µM (inactive) | > 100 µM (inactive) | > 100 µM (inactive) | > 100 µM (inactive) | > 100 µM (inactive) | > 100 µM (inactive)
CCCNc1[nH]c(C(C)=O)c(N)c1C(=S)Nc1ccccc1 | 39.3 µM (inactive) | 28.7 µM (inactive) | 54.7 µM (inactive) | 27.4 µM (inactive) | 31.7 µM (inactive) | 43.3 µM (inactive) | 37 µM (inactive) | 33.3 µM (inactive) | 21 µM (inactive) | 24.7 µM (inactive) | 23.3 µM (inactive) | 31.8 | 37.7 µM (inactive) | 36.6 µM (inactive) | 46.5 µM (inactive) | 69.2 µM (inactive) | 21.7 µM (inactive) | 17.9 µM (inactive) | 42.4 µM (inactive) | 17.2 µM (inactive)
COc1cc(OC(=O)c2ccccc2)cc2c1C(=O)C=CC2=O | 25.1 µM (inactive) | 15.2 µM (inactive) | 17.7 µM (inactive) | 18.5 µM (inactive) | 16.4 µM (inactive) | 17.3 µM (inactive) | 22.6 µM (inactive) | 36.2 µM (inactive) | 5.65 µM (inactive) | 18.2 µM (inactive) | 16.8 µM (inactive) | 11.9 | 0.556 µM (active) | 2.29 µM (inactive) | 0.543 µM (active) | 1.73 µM (inactive) | 28.4 µM (inactive) | 13.8 µM (inactive) | 5.32 µM (inactive) | 0.469 µM (active)
O=c1cc(CN2CCCCC2)nc2ccc3c(O)cc(CN4CCCCC4)nc3n12 | > 100 µM (inactive) | > 100 µM (inactive) | > 100 µM (inactive) | > 100 µM (inactive) | > 100 µM (inactive) | > 100 µM (inactive) | > 100 µM (inactive) | > 100 µM (inactive) | > 100 µM (inactive) | > 100 µM (inactive) | > 100 µM (inactive) | > 100 | > 100 µM (inactive) | > 100 µM (inactive) | > 100 µM (inactive) | 89.7 µM (inactive) | > 100 µM (inactive) | > 100 µM (inactive) | > 100 µM (inactive) | > 100 µM (inactive)
Clc1cc(Cl)nc(Nc2ccc3c(c2)CCC3)n1 | 28.4 µM (inactive) | 48 µM (inactive) | 61.2 µM (inactive) | 31.3 µM (inactive) | 62.5 µM (inactive) | 48.5 µM (inactive) | – | 32.6 µM (inactive) | 58.5 µM (inactive) | 37.7 µM (inactive) | 44.8 µM (inactive) | 33.7 | 36.7 µM (inactive) | 51.3 µM (inactive) | 30.3 µM (inactive) | 13.8 µM (inactive) | 45 µM (inactive) | 46.1 µM (inactive) | 32 µM (inactive) | 30.3 µM (inactive)
CC(=O)O[C@H]1CCc2c(cc(N)c3c2C(=O)C[C@]2(C)C([C@H](C)CCCC(C)C)CCC32C)C1(C)C (stereo partly drawn) | 17.1 µM (inactive) | 42.4 µM (inactive) | > 100 µM (inactive) | 73.6 µM (inactive) | > 100 µM (inactive) | > 100 µM (inactive) | > 100 µM (inactive) | > 100 µM (inactive) | 86.7 µM (inactive) | > 100 µM (inactive) | > 100 µM (inactive) | > 100 | 66.5 µM (inactive) | > 100 µM (inactive) | > 100 µM (inactive) | > 100 µM (inactive) | > 100 µM (inactive) | > 100 µM (inactive) | > 100 µM (inactive) | 33.9 µM (inactive)

Source: ChEMBL document CHEMBL1201862, “PubChem BioAssay data set” (2004)
